According to patent US10150771B2, “Triazolopyrazinones as PDE1 inhibitors” (H. Lundbeck A/S, priority 2014, dated 2018):

Experiments:
Type in all cases: biochemical
[1] = target: PDE1C (Homo sapiens, UniProt Q14123); assay: PDE1 inhibition assay (SPA), PDE1C; settings: for IC50: concentration required to reach 50% inhibition of the enzyme, 15 nM tritium labelled cAMP, read-out: PDE1C inhibition (nM or %): IC50; for PDE1C inhibition (nM or %): % inhib: % inhibition of the enzyme at a concentration of 10 micro molar of the compound
PDE1C, sequence (Q14123 whole entry): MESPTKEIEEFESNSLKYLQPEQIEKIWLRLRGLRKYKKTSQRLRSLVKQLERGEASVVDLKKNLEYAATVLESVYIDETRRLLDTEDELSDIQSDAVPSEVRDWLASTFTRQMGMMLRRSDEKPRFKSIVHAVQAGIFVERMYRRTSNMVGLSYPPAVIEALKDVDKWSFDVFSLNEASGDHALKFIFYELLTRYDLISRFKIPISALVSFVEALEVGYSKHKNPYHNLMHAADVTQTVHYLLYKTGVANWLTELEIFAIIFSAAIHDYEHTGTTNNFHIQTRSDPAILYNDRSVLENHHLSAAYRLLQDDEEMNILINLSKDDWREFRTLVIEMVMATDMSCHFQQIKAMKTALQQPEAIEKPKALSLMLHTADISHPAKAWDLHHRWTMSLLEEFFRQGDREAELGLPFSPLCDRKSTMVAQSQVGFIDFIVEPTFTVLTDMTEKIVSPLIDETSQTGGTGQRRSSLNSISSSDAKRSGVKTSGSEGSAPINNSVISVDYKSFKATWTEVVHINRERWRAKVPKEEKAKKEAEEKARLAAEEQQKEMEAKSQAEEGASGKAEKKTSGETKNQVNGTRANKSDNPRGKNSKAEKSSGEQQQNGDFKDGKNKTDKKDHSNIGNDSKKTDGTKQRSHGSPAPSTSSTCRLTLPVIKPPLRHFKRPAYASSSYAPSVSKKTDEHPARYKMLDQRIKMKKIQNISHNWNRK
Experimental: (§1) PDE1 Inhibition Assay PDE1A, PDE1B and PDE1C assays were performed as follows: the assays were performed in 60 μL samples containing a fixed amount of the PDE1 enzym1 (sufficient to convert 20-25% of the cyclic nucleotide substrate), a buffer (50 mM HEPES pH 7.6; 10 mM MgCl2; 0.02% Tween20), 0.1 mg/ml BSA, 15 nM tritium labelled cAMP and varying amounts of inhibitors. Reactions were initiated by addition of the cyclic nucleotide substrate, and reactions were allowed to proceed for 1 h at room temperature before being terminated through mixing with 20 μL (0.2 mg) yttrium silicate SPA beads (PerkinElmer). The beads were allowed to settle for 1 h in the dark before the plates were counted in a Wallac 1450 Microbeta counter. The measured signals were converted to activity relative to an uninhibited control (100%) and IC50 values were calculated using XIFit (model 205, IDBS).

[2] = target: PDE1A (Homo sapiens, UniProt P54750); assay: PDE1 inhibition assay (SPA), PDE1A; settings: for IC50: concentration required to reach 50% inhibition of the enzyme, 15 nM tritium labelled cAMP, read-out: PDE1A inhibition (nM or %): IC50; for inhibition at 10 µM: 1 h, % inhibition of the enzyme at a concentration of 10 micro molar of the compound, read-out: PDE1A inhibition (nM or %): % inhib
PDE1A, sequence (P54750 whole entry): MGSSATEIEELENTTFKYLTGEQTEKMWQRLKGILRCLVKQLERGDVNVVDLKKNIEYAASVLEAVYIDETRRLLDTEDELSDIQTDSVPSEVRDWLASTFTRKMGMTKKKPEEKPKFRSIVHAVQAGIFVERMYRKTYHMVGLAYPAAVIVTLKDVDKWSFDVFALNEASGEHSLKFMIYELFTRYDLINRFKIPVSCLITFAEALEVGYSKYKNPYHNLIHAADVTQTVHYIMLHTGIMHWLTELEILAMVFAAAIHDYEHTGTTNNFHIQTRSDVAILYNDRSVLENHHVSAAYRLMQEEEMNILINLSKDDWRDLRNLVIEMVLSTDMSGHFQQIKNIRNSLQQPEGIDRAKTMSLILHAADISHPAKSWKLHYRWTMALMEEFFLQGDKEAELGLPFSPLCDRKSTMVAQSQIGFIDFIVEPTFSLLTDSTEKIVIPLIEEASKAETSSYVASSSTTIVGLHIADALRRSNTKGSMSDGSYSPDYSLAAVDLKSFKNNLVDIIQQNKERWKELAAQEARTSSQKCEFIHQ
Experimental: as §1

[3] = target: PDE1B (Homo sapiens, UniProt Q01064); assay: PDE1 inhibition assay (SPA), PDE1B; settings: for IC50: concentration required to reach 50% inhibition of the enzyme, 15 nM tritium labelled cAMP, read-out: PDE1B inhibition (nM or %): IC50; for inhibition at 10 µM: 1 h, % inhibition of the enzyme at a concentration of 10 micro molar of the compound, read-out: PDE1B inhibition (nM or %): % inhib
PDE1B, sequence (Q01064 whole entry): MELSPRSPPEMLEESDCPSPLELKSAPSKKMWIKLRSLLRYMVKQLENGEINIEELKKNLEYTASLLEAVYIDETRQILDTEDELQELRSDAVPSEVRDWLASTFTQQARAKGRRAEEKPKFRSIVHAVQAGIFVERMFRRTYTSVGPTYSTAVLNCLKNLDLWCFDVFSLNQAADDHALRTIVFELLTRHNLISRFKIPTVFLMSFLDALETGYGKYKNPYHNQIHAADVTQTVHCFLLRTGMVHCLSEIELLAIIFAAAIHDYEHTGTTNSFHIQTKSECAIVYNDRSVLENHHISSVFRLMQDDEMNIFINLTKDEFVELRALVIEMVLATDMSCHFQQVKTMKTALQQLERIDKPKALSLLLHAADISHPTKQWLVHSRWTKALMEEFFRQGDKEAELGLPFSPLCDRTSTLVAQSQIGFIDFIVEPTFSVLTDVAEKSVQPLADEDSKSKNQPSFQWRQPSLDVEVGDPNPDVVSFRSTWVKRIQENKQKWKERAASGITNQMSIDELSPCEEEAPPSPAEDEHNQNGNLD
Experimental: as §1

| Compound | IC50 [1] [nM] | IC50 [2] [nM] | IC50 [3] [nM] | PDE1C inhibition (nM or %): % inhib [1] [%] | inhibition at 10 µM [2] [%] | inhibition at 10 µM [3] [%] |
| --- | --- | --- | --- | --- | --- | --- |
| CCCc1nnc2c(=O)n(Cc3ccccc3)ccn12 [7-Benzyl-3-propyl-[1,2,4]triazolo[4,3-a]pyrazin-8(7H)-one] | 110 | 770 | 400 |  |  |  |
| CCCc1nnc2c(=O)n(Cc3cccc(F)c3)cc(C)n12 [7-(3-fluorobenzyl)-5-methyl-3-propyl-[1,2,4]triazolo[4,3-a]pyrazin-8(7H)-one] | 260 | 1360 | 1000 |  |  |  |
| Cc1cccc(Cc2cn3c(C4CCOCC4)nnc3c(=O)n2CC2CCCCC2)c1 [7-(cyclohexylmethyl)-6-(3-methylbenzyl)-3-(tetrahydro-2H-pyran-4-yl)-[1,2,4]triazolo[4,3-a]pyrazin-8(7H)-one] | 1 | 2 | 3 |  |  |  |
| CCCc1nnc2c(=O)n(Cc3ccccc3F)ccn12 [7-(2-Fluorobenzyl)-3-propyl-[1,2,4]triazolo[4,3-a]pyrazin-8(7H)-one] | 130 | 860 | 1000 |  |  |  |
| O=c1c2nnc(C3CCOCC3)n2cc(Cc2ccc(-c3ccccc3)cc2)n1CC1CCCCC1 [6-([1,1′-biphenyl]-4-ylmethyl)-7-(cyclohexylmethyl)-3-(tetrahydro-2H-pyran-4-yl)-[1,2,4]triazolo[4,3-a]pyrazin-8(7H)-one] | 0.1 | 0.33 | 0.17 |  |  |  |
| O=c1c2nnc(C3CCOCC3)n2cc(Cc2ccccc2)n1CC1CCCCCC1 [6-benzyl-7-(cycloheptylmethyl)-3-(tetrahydro-2H-pyran-4-yl)-[1,2,4]triazolo[4,3-a]pyrazin-8(7H)-one] | 2 | 1 | 4 |  |  |  |
| O=c1c2nnc(C3CCOCC3)n2cc(Cc2ccc(F)cc2)n1CC1CCCCCC1 [7-(cycloheptylmethyl)-6-(4-fluorobenzyl)-3-(tetrahydro-2H-pyran-4-yl)-[1,2,4]triazolo[4,3-a]pyrazin-8(7H)-one] | 4 | 3 | 9 |  |  |  |
| CCCc1nnc2c(=O)n(Cc3cccc(F)c3)c([C@@H]3CCOC3)cn12 (single isomer, unassigned) | 270 | 1100 | 1100 |  |  |  |
| CCCc1nnc2c(=O)n(Cc3cccc(F)c3)cc(Br)n12 [5-bromo-7-(3-fluorobenzyl)-3-propyl-[1,2,4]triazolo[4,3-a]pyrazin-8(7H)-one] | 72 | 149 | 180 |  |  |  |
| CCCc1nnc2c(=O)n(CC(C)C)ccn12 [7-Isobutyl-3-propyl-[1,2,4]triazolo[4,3-a]pyrazin-8(7H)-one] | 970 | 3300 | 2700 |  |  |  |
| CCCc1nnc2c(=O)n(Cc3cccc(F)c3)c(CC)cn12 [6-ethyl-7-(3-fluorobenzyl)-3-propyl-[1,2,4]triazolo[4,3-a]pyrazin-8(7H)-one] | 50 | 117 | 180 |  |  |  |
| O=c1c2nnc(C3CCOCC3)n2cc(Cc2ccccc2)n1CC1CCCCC1 [6-benzyl-7-(cyclohexylmethyl)-3-(tetrahydro-2H-pyran-4-yl)-[1,2,4]triazolo[4,3-a]pyrazin-8(7H)-one] | 4 | 11 | 11 |  |  |  |
| CCCc1nnc2c(=O)n(CC3C4CC5CC(C4)CC3C5)ccn12 (stereo not drawn) [7-(((1r,3r,5r,7r)-adamantan-2-yl)methyl)-3-propyl-[1,2,4]triazolo[4,3-a]pyrazin-8(7H)-one] | 63 | 179 | 210 |  |  |  |
| CCc1nnc2c(=O)n(Cc3ccc(Cl)cc3)ccn12 [7-(4-Chlorobenzyl)-3-ethyl-[1,2,4]triazolo[4,3-a]pyrazin-8(7H)-one] | 2400 | 1000 | 800 |  |  |  |
| Cc1ccccc1Cc1cn2c(C3CCOCC3)nnc2c(=O)n1Cc1cccc(F)c1 [7-(3-fluorobenzyl)-6-(2-methylbenzyl)-3-(tetrahydro-2H-pyran-4-yl)-[1,2,4]triazolo[4,3-a]pyrazin-8(7H)-one] | 17 | 91 | 82 |  |  |  |
| CCCc1nnc2c(=O)n(Cc3cccc(Cl)c3)ccn12 [7-(3-Chlorobenzyl)-3-propyl-[1,2,4]triazolo[4,3-a]pyrazin-8(7H)-one] | 160 | 1400 | 1300 |  |  |  |
| Cc1ccc(Cc2cn3c(C4CCOCC4)nnc3c(=O)n2CC2CCCC2)cc1 [7-(cyclopentylmethyl)-6-(4-methylbenzyl)-3-(tetrahydro-2H-pyran-4-yl)-[1,2,4]triazolo[4,3-a]pyrazin-8(7H)-one] | 3 | 21 | 19 |  |  |  |
| Cc1ccccc1Cc1cn2c(C3CCOCC3)nnc2c(=O)n1CC1CCCC1 [7-(cyclopentylmethyl)-6-(2-methylbenzyl)-3-(tetrahydro-2H-pyran-4-yl)-[1,2,4]triazolo[4,3-a]pyrazin-8(7H)-one] | 23 | 251 | 260 |  |  |  |
| O=c1c2nnc(CCF)n2ccn1Cc1cccc(F)c1 [7-(3-Fluorobenzyl)-3-(2-fluoroethyl)-[1,2,4]triazolo[4,3-a]pyrazin-8(7H)-one] | 620 | 2900 | 3000 |  |  |  |
| CCCc1nnc2c(=O)n(Cc3cccc(F)c3)cc([C@@H]3CCOC3)n12 (single isomer, unassigned) | 260 | 1780 | 1000 |  |  |  |
| Cc1ccccc1Cc1cn2c(C3CCOCC3)nnc2c(=O)n1CC1CCCCC1 [7-(cyclohexylmethyl)-6-(2-methylbenzyl)-3-(tetrahydro-2H-pyran-4-yl)-[1,2,4]triazolo[4,3-a]pyrazin-8(7H)-one] | 10 | 41 | 44 |  |  |  |
| CCCc1nnc2c(=O)n(Cc3ccc(C(F)(F)F)cc3)ccn12 [3-Propyl-7-(4-(trifluoromethyl)benzyl)-[1,2,4]triazolo[4,3-a]pyrazin-8(7H)-one] | 2100 | 1200 | 570 |  |  |  |

The next lines start with the values.

| IC50 [1] [nM] | IC50 [2] [nM] | IC50 [3] [nM] | PDE1C inhibition (nM or %): % inhib [1] [%] | inhibition at 10 µM [2] [%] | inhibition at 10 µM [3] [%] | Compound |
| --- | --- | --- | --- | --- | --- | --- |
| 33 | 54 | 28 |  |  |  | CCCc1nnc2c(=O)n(CC3CCCCCC3)ccn12 [7-(Cycloheptylmethyl)-3-propyl-[1,2,4]triazolo[4,3-a]pyrazin-8(7H)-one] |
| 65 | 83 | 53 |  |  |  | CCCc1nnc2c(=O)n(CC3CCC(C)CC3)ccn12 (racemic) [7-((4-methylcyclohexyl)methyl)-3-propyl-[1,2,4]triazolo[4,3-a]pyrazin-8(7H)-one] |
|  |  |  | 57 | 37 | 46 | CCCc1nnc2c(=O)n(CC3COC3)ccn12 [7-(Oxetan-3-ylmethyl)-3-propyl-[1,2,4]triazolo[4,3-a]pyrazin-8(7H)-one] |
| 3 | 13 | 4 |  |  |  | O=c1c2nnc(C3CCOCC3)n2cc(Br)n1CC1CCCCCC1 [6-bromo-7-(cycloheptylmethyl)-3-(tetrahydro-2H-pyran-4-yl)-[1,2,4]triazolo[4,3-a]pyrazin-8(7H)-one] |
|  |  |  | 52 | 49 | 71 | CCCc1nnc2c(=O)n(CC)ccn12 [7-Ethyl-3-propyl-[1,2,4]triazolo[4,3-a]pyrazin-8(7H)-one] |
| 42 | 43 | 33 |  |  |  | O=c1c2nnc(C3CCOCC3)n2ccn1CC1CCCCCC1 [7-(Cycloheptylmethyl)-3-(tetrahydro-2H-pyran-4-yl)-[1,2,4]triazolo[4,3-a]pyrazin-8(7H)-one] |
| 110 | 1100 | 990 |  |  |  | O=c1c2nnc(C3CCOCC3)n2ccn1CC1CCCC1 [7-(Cyclopentylmethyl)-3-(tetrahydro-2H-pyran-4-yl)-[1,2,4]triazolo[4,3-a]pyrazin-8(7H)-one] |
| 92 | 86 | 53 |  |  |  | CCCc1nnc2c(=O)n(CC3CCC4(CC3)CC4)ccn12 [3-propyl-7-(spiro[2.5]octan-6-ylmethyl)-[1,2,4]triazolo[4,3-a]pyrazin-8(7H)-one] |
| 210 | 500 | 780 |  |  |  | O=c1c2nnc(C3CC3)n2ccn1Cc1cccc(F)c1 [3-Cyclopropyl-7-(3-fluorobenzyl)-[1,2,4]triazolo[4,3-a]pyrazin-8(7H)-one] |
| 800 | 420 | 290 |  |  |  | O=c1c2nnc(C3CCCC3)n2ccn1Cc1cccc(F)c1 [3-Cyclopentyl-7-(3-fluorobenzyl)-[1,2,4]triazolo[4,3-a]pyrazin-8(7H)-one] |
| 610 | 660 | 560 |  |  |  | CCCc1nnc2c(=O)n(CC3CCC(F)CC3)ccn12 (mixture of isomers) [7-((4-fluorocyclohexyl)methyl)-3-propyl-[1,2,4]triazolo[4,3-a]pyrazin-8(7H)-one] |
| 1100 | 1260 | 1000 |  |  |  | CCCCCCn1ccn2c(C3CCOCC3)nnc2c1=O [7-Hexyl-3-(tetrahydro-2H-pyran-4-yl)-[1,2,4]triazolo[4,3-a]pyrazin-8(7H)-one] |
